Values of other authors, collected in US10363219B2, “Method of preparing albumin nanoparticle carrier wrapping taxane drug” (Zhejiang Academy of Forestry, priority 2016, dated 2019).

Details: relative to paclitaxel

Question: For `CC(=O)O[C@@]12CO[C@@H]1C[C@H](O)[C@@]1(C)C(=O)[C@H](O)C3=C(C)[C@@H](OC(=O)[C@H](O)[C@@H](NC(=O)OC(C)(C)C)c4ccccc4)C[C@@](O)([C@@H](OC(=O)c4ccccc4)[C@H]21)C3(C)C` [Docetaxel], which “cytotoxic effect, times of that of paclitaxel” value is on record?
Answer: 1.3-12 times
